Reference: patent publication US5162499A, “Synthetic peptides for the treatment of AIDS” (Heterocyclic Research, Inc., priority 1991, dated 1992)

What was measured:
Human monocytes = test: Chemotaxis assay (monocyte migration in agarose plates); format: cell-based; parameters: key: (cells migrating to attractant − cells migrating to buffer)/10
Text: Briefly, monocyte migration is directly observed in a chemotaxis chamber.
A comparative study comparing the chemotactic activity of the peptides of the invention with the chemotactic activity of peptide T (C. B. Pert et al., Proc. Natl. Acad. Sci., Vol. 83, pp. 9254-9258, 1986) was undertaken. […] Human monocytes were obtained by the known technique of layering heparinized blood on FICOLL-HYPAQUE differential dentrifugation medium in a centrifuge tube and spinning to separate the red blood cells from plasma and the monolayered monocytes. The monocytes were pipetted off and then washed with physiological saline.
The agarose plates were also prepared in accordance with conventional methods. Agarose type II (0.4 g), available from Sigma Chemical, and LITEX gelatin (0.3 g) were combined and heated until the gelatin was thoroughly dissolved. RMPI-HANK buffer (4 ml), distilled water (15.2 ml) and saturated NaHCO3 solution (0.8 ml) were then added to the agarose gelatin and mixed to homogeneity. 5 ml aliquots of the resulting solution were poured into plastic petri dishes (FALCON 55 mm) and allowed to gel. After the agarose has sufficiently hardened, wells, 3 mm in diameter were cut in the agarose, such that each dish had six rows of wells radiating from the center of the dish, each row containing three wells spaced apart by a distance of 3 mm. Thus, each plate was used to assay two test samples in triplicate. 8 ul of the test peptide (in 120 mM HEPES buffer) was placed on the outermost well, 8 ul of monocyte cell solution was placed in the center well and 8 ul of RPMI-HANKS buffer was placed in the innermost well. The migration of monocytes was visually observed and the number of migrating cells was determined. A chemotactic index was calculated as the number of cells which migrated toward the attractant, i.e., test peptide or control, less the number of cells that migrated towards the buffer divided by 10. Formyl-Met-Leu-Phe (FMLP) and (D-Ala)Peptide-T were used as positive control and HEPES buffer and Leu-Gly-Gly were used as negative controls.

[1] = test system: binding of HIV to T4 cells; details: reported by Pert et al., PNAS 1986; cited from earlier work
[2] = attractant concentration 10^-9 M
[3] = attractant concentration 10^-10 M
[4] = attractant concentration 10^-11 M

Substance	Chemotactic Index (Human monocytes; [2])	Chemotactic Index (Human monocytes; [3])	Chemotactic Index (Human monocytes; [4])	Blocking of the binding of HIV to T4 cells (in words) [1]
ALA--SER--SER--SER--ASN--TYR--MET (ASSSNYM; printed: ALA--SER--SER--SER--ASN--TYR--MET) [Example 6, linear heptapeptide]	4.9	4.7	5.1	
Ala-Ser-Thr-Thr-Thr-Asn-Tyr-Thr [peptide T]				block the binding of HIV to T4 cells
H-SER-SER-ASN-TYR-MET (SSNYM; printed: SER-SER-ASN-TYR-MET) [Example 8, linear pentapeptide]	5.0	4.8	6.0	
SER--SER--SER--ASN--TYR--MET (SSSNYM; printed: SER--SER--SER--ASN--TYR--MET) [Example 7, linear hexapeptide]	4.6	5.1	5.3	
